In experiment [1] the target is T1, MBP-FYVE (AdcA FYVE domain) (Dictyostelium discoideum, UniProt Q54CH1).
T1 sequence (Q54CH1 458-530): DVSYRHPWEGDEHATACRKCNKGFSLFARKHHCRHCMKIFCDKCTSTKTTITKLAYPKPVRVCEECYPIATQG
As to the kind of experiment: intrinsic tryptophan fluorescence titration. The format is binding. The conditions noted are these: read-out: affinity.

Another experiment addresses T2, ArfA-His6 (Dictyostelium discoideum, UniProt O00909 1-182).
T2 construct: Preincubated with 100 µM GDPβS, 100 µM GTPγS or no extra nucleotide before the pull-down; The nucleotide state is told by the assay; also called Dd-ArfA; ADP-ribosylation factor ArfA; source: E. coli BL21(DE3), purified (Ni-NTA agarose); not shown: His6, C-terminal, kept
As to the kind of experiment: pull-down; GST-AdcAC on glutathione Sepharose beads, ArfA-His6 preincubated 1 hr at 4°C with 100 µM GDPβS or no extra nucleotide, then overnight at 4°C; 20 mM Tris pH 7.5, 25 mM NaCl, 2 mM DTT, 2 mM EDTA, 2.5 mM MgCl2, 1 mM ATP, 0.2% Triton X-100; Western blot with anti-Arf antibody. As to conditions: both partners purified.

T2 sequence (O00909 whole entry): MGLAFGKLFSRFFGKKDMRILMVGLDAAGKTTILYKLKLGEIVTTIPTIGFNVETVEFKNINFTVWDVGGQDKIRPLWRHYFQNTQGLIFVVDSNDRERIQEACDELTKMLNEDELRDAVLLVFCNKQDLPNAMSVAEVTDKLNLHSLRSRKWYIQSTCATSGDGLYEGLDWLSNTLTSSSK

On to `O=P(O)(O)O[C@@H]1[C@H](O)[C@H](OP(=O)(O)O)[C@@H](O)[C@H](O)[C@H]1O` [Ins(1,3)P2], for which the Kd in experiment [1] was approximately 20 µM.

B1: GST-AdcAC (C domain of the arrestin core of AdcA, amino acids 311 to 459, fused to GST) (domain or fragment, Dictyostelium discoideum, UniProt Q54CH1 311-459, looked up)
chain: MLTKGKLHVKTWLNKNAYFPGETLVAKMKANNTSIKPTRKISLVVHHTMQLKTRLYHRCITNAIYKQQYDGFQPCFYGKRYLPFSIPVDLKPSSSLGKHITSSYLLELECDIPMAIDLSVTLPLTLFAPQFLYSTVPSQPPGTPLPPDV
notes: AdcA (arrestin-domain containing protein A) of Dictyostelium discoideum, whole protein 580 amino acids; C domain of the arrestin core, amino acids 311 to 459, in pGEX-KG; also called GST-AdcC; C-terminal domain of the AdcA arrestin core; not shown: GST, N-terminal, kept
For B1, the binding result in the experiment with ArfA-His6 is recorded as “binds”.

The values are drawn from article PMC3001460, “FYVE-Dependent Endosomal Targeting of an Arrestin-Related Protein in Amoeba” (PLoS ONE, 2010).
